Results taken from US5789377A (priority 1995, dated 1998).
Where two headings read alike, the source gives them in different places.

Legend:
Type in all cases: cell-based
[1] = tested on: E. coli
Procedure: (§1) The minimum inhibitory concentrations (MIC) of CEME, CEMA and melittin were determined for a number of different bacteria (Table 2). Briefly, cells were grown overnight at 37° C. in LB-S (Luria broth without any salt supplement) and diluted one in 10,000 in the same medium to give concentrations of about 10^4 to 10^5 CFU/ml. The broth dilutions were set up in a 96 well microtiter plate by putting 200 μl of LB-S containing the initial concentration of antibiotic or compound in column 1 and 100 μl of the same medium in columns 2-12. The compounds were diluted by taking 100 μl of broth from column 1 and mixing it with column 2, resulting in a one in two dilution. This was continued to column 10. Finally, 10 μl of bacteria were pipetted into columns 1-11, and the plates incubated overnight at 37° C. The next day the plates were scored for growth in the wells, and the MIC determined.

[2] = tested on: P. aeruginosa; settings: fragments of CEMA
Procedure: as §1

[3] = tested on: S. aureus; settings: fragments of CEMA
Procedure: as §1

[4] = tested on: Candida albicans; assay: MIC broth dilution; settings: fragments of CEMA
Procedure: as §1
Consequently, although CEMA is an effective antimicrobial agent, the individual fragments have no antimicrobial (or anti-fungal) activity.

[5] = tested on: E. coli strain DC2; assay: gel overlay antibacterial activity assay; settings: gel overlaid with ≈10^5 E. coli strain DC2, overnight at 37° C.
Procedure: A sample of the partially purified CEME protein was electrophoresed on a 15% acid-urea gel, which separates proteins based on charge and mass (Panyim and Chalkey, Arch. Biochem. Biophys., 130:337, 1969). The pH of the buffer is acidic (=pH 5.0) and the polarity is reversed such that proteins migrate to the cathode. Therefore, the small cationic peptides run relatively quickly through the gel and thus can be easily identified. Antibacterial activity was tested as previously described (Hultmark, Eur. J. Biochem., 106:7, 1980). The gel was incubated in Mueller Hinton broth+0.2M NaPO4 pH 7.4 for 1 hr. It was overlaid with 5 mls of the same media containing 0.6% agar and ≈10^5 E. coli strain DC2, and then again with 5 ml of the same media containing only 0.6% agar. […] Melittin is used as a positive control due to its antibacterial activity and similarity in size and PI values.

[6] = tested on: P. AERUGINOSA H309; assay: lysozyme lysis assay (membrane permeabilization); settings: 50 μg/ml lysozyme, decrease in OD600, FIG. 5
Procedure: Membrane permeabilization by polycationic compounds was measured in two different assays. The first assay measured membrane disruption by the ability of lysozyme to reach the periplasm and cause cell lysis. […] The uptake of lysozyme into whole cells due to membrane permeabilization by various compounds was previously described in Hancock, et al., Antimicrobial Agents and Chemo., 19:777, 1981. Overnight cultures of P. aeruginosa H309 or E. cloacae 218R1 grown in LB-S were diluted 1 in 50 in fresh medium and grown to an OD600 =0.5-0.6. The cells were harvested in a Silencer H-103N clinical centrifuge at 1800 g for 10 min, washed once with one volume of assay buffer (5 mM HEPES pH 7.2, 5 mM KCN), and resuspended in the same buffer to an OD600 of 0.5. Assays consisted of 600 μl of cells with 50 μg/ml of chicken egg white lysozyme and varying concentrations of cationic compounds. Cell lysis was measured as a decrease in the OD600 in a Perkin-Elmer dual beam spectrophotometer. Parallel experiments performed without lysozyme enabled the measurement of the lytic activity of the compounds themselves. To test whether or not permeability to lysozyme could be inhibited by divalent cations, various concentrations of MgCl2 were added to the assay after the addition of lysozyme and before the addition of the test compound.

[7] = tested on: P. AERUGINOSA H309; assay: 1-N-phenylnaphthylamine (NPN) uptake assay; settings: 10 μM NPN, fluorescence, FIG. 7
Text: (§2) The second assay determined membrane permeability by the ability of 1-N-phenylnaphthylamine (NPN), a small fluorescent probe, to insert itself into the membrane. Normally, very little NPN can penetrate the outer membrane, but in the presence of a membrane permeabilizer it can insert into the hydrophobic membrane resulting in an increase in fluorescence (FIGS. 7 and 8). This N-phenylnaphthylamine uptake assay was previously described by Loh, et al., Antimicrobial Agents and Chemo., 26:546, 1984. Cells were prepared exactly the same as for the lysozyme lysis assay. 1-N-phenylnaphthylamine (NPN) was dissolved in acetone at a concentration of 500 μM. NPN fluorescence was measured in a Perkin-Elmer 650-10S fluorescent spectrophotometer using excitation and emission wavelengths set to 350 nm and 420 nm respectively, with slit widths of 5 nm. The assay was standardized by adding 20 μl of NPN (final concentration of 10 μM) and 10 μl of 0.64 mg/ml of polymyxin B (final concentration of 6.4 μg/ml) into 1 ml of cells, and adjusting the resulting fluorescence to read 90% deflection (90 arbitrary units). Various compounds were tested by adding 10 μl of different concentrations to a cuvette containing 1 ml of cells and 10 μM NPN. Permeabilizing activity was designated as the total fluorescence minus the fluorescence due to NPN alone. Following the fluorescence measurement, the OD600 of the cells was taken to ensure no significant cell lysis had occurred.

[8] = tested on: E. cloacae; settings: strain 218R1, β-lactam resistant
Procedure: as §1

[9] = tested on: S. typhimurium
Procedure: as §1

[10] = tested on: E. cloacae 218R1; assay: 1-N-phenylnaphthylamine (NPN) uptake assay; settings: 10 μM NPN, fluorescence, FIG. 8
Text: as §2

[11] = tested on: RAW cells; assay: RAW cell viability by Trypan blue exclusion; settings: up to 50 μg peptide
[12] = strain DC2, Polymyxin sensitive
[13] = strain SC9251, Parent of SC9252
[14] = strain SC9252, Polymyxin resistant
[15] = strain C590, Defensin sensitive

CC[C@H](C)[C@H](NC(=O)CN)C(=O)NCC(=O)N[C@@H](C)C(=O)N[C@H](C(=O)N[C@@H](CC(C)C)C(=O)N[C@@H](CCCCN)C(=O)N[C@H](C(=O)N[C@@H](CC(C)C)C(=O)N[C@H](C(=O)N[C@H](C(=O)NCC(=O)N[C@@H](CC(C)C)C(=O)N1CCC[C@H]1C(=O)N[C@@H](C)C(=O)N[C@@H](CC(C)C)C(=O)N[C@@H](CCCCN)C(=O)N[C@@H](CC(C)C)C(=O)N[C@H](C(=O)N[C@@H](CCCCN)C(=O)O)[C@@H](C)O)[C@@H](C)O)[C@@H](C)O)C(C)C)C(C)C [MA]
MIC ([1]; E. coli, fragments of CEMA): greater than 64 ug/ml
MIC [2]: greater than 64 ug/ml
MIC [3]: greater than 64 ug/ml
MIC [4]: greater than 64 ug/ml

CC[C@H](C)[C@H](NC(=O)CN)C(=O)NCC(=O)N[C@@H](C)C(=O)N[C@H](C(=O)N[C@@H](CC(C)C)C(=O)N[C@@H](CCCCN)C(=O)N[C@H](C(=O)N[C@@H](CC(C)C)C(=O)N[C@H](C(=O)N[C@H](C(=O)NCC(=O)N[C@@H](CC(C)C)C(=O)N1CCC[C@H]1C(=O)N[C@@H](C)C(=O)N[C@@H](CC(C)C)C(=O)N[C@H](C(=O)N[C@@H](CO)C(=O)N[C@@H](Cc1c[nH]c2ccccc12)C(=O)N[C@H](C(=O)N[C@@H](CCCCN)C(=O)N[C@@H](CCCNC(=N)N)C(=O)N[C@@H](CCCCN)C(=O)N[C@@H](CCCNC(=N)N)C(=O)N[C@@H](CCC(N)=O)C(=O)N[C@@H](CCC(N)=O)C(N)=O)[C@@H](C)CC)[C@@H](C)CC)[C@@H](C)O)[C@@H](C)O)C(C)C)C(C)C [MEL, melittin]
zones of clearing on overlaid acid-urea gel [5]: zones of clearing
permeabilization of outer membrane to lysozyme [6]: did not appear to be a good permeabilizer as compared to the other peptides
opening up the membrane to NPN [7]: less active

polymyxin B [PX]
MIC [8]: 0.5 µg/mL
MIC [1, 12]: 0.06 µg/mL
MIC [1, 13]: 0.06 µg/mL
MIC [1, 14]: 4 µg/mL
MIC ([9]; strain C587, Parent of C590): 1 µg/mL
MIC [9, 15]: 0.25 µg/mL
opening up the membrane to NPN [10]: equally active
opening up the membrane to NPN [7]: equally active

gentamicin [GM]
MIC [8]: 0.5 µg/mL
MIC [1, 12]: 0.5 µg/mL
MIC [1, 13]: 2 µg/mL
MIC [1, 14]: 4 µg/mL
MIC ([9]; strain C587, Parent of C590): 4 µg/mL
MIC [9, 15]: 2 µg/mL

CC[C@H](C)[C@H](NC(=O)CNC(=O)[C@@H](NC(=O)[C@H](CCCCN)NC(=O)[C@H](CCCCN)NC(=O)[C@H](Cc1ccccc1)NC(=O)[C@H](CC(C)C)NC(=O)[C@H](CCCCN)NC(=O)[C@H](Cc1c[nH]c2ccccc12)NC(=O)[C@@H](N)CCCCN)[C@@H](C)CC)C(=O)NCC(=O)N[C@@H](C)C(=O)N[C@H](C(=O)N[C@@H](CC(C)C)C(=O)N[C@@H](CCCCN)C(=O)N[C@H](C(=O)N[C@@H](CC(C)C)C(=O)N[C@H](C(=O)N[C@H](C(=O)NCC(=O)N[C@@H](CC(C)C)C(=O)N1CCC[C@H]1C(=O)N[C@@H](C)C(=O)N[C@@H](CC(C)C)C(=O)N[C@@H](CCCCN)C(=O)N[C@@H](CC(C)C)C(=O)N[C@H](C(=O)N[C@@H](CCCCN)C(=O)O)[C@@H](C)O)[C@@H](C)O)[C@@H](C)O)C(C)C)C(C)C [CEMA]
RAW cell viability [11]: no apparent decrease
